# According to the supplement of paper PMC5908809:
# Experiments:
# [1] = tested on: normal NK cells expanded with K562-aAPC; experiment: percent inhibition of viability; higher = more inhibition; conditions: 72 h, IL-2 2.5 ng/mL
# Method: (§1)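 Drug sensitivity and resistance testing on K562-aAPC-expanded normal NK cells: 5 concentrations (10-fold steps over a 10,000-fold range), 72 h at 37 °C, viability by CellTiter-Glo normalised to DMSO and benzethonium chloride controls; DSS from the fitted curve.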
# [2] = tested on: DERL-7 (IL-2 2.5 ng/mL); experiment: as above; conditions: 72 h
# [3] = tested on: IMC-1 (IL-2 20 ng/mL); experiment: as above; conditions: 72 h
# [4] = tested on: KAI3 (IL-2 2.5 ng/mL); experiment: as above; conditions: 72 h
# [5] = tested on: KHYG-1 (IL-2 2.5 ng/mL); experiment: as above; conditions: 72 h
# [6] = tested on: NK-92 (IL-2 2.5 ng/mL); experiment: as above; conditions: 72 h
# [7] = tested on: NK-YS (IL-2 2.5 ng/mL); experiment: as above; conditions: 72 h
# [8] = tested on: NKL (IL-2 2.5 ng/mL); experiment: as above; conditions: 72 h
# [9] = tested on: SNK-6 (IL-2 2.5 ng/mL); experiment: as above; conditions: 72 h
# [10] = tested on: YT (IL-2 2.5 ng/mL); experiment: as above; conditions: 72 h
# [11] = tested on: normal primary NK cells, pool 1 (3 donors) (IL-2 2.5 ng/mL); experiment: as above; conditions: 72 h
# [12] = tested on: normal primary NK cells, pool 1 (3 donors), resting (IL-2 0 ng/mL); experiment: as above; conditions: 72 h
# [13] = tested on: normal primary NK cells, pool 2 (3 donors) (IL-2 2.5 ng/mL); experiment: as above; conditions: 72 h
# [14] = tested on: normal primary NK cells, pool 3 (3 donors) (IL-2 2.5 ng/mL); experiment: as above; conditions: 72 h
# [15] = tested on: normal NK cells expanded with K562-aAPC; experiment: drug sensitivity score (DSS) (DSS units); higher = more sensitive; extreme values may be limits of the assay; conditions: 72 h; IL-2 2.5 ng/mL
# Method: as §1
# [16] = tested on: DERL-7 (IL-2 2.5 ng/mL); experiment: as above; conditions: 72 h
# [17] = tested on: IMC-1 (IL-2 20 ng/mL); experiment: as above; conditions: 72 h
# [18] = tested on: KAI3 (IL-2 2.5 ng/mL); experiment: as above; conditions: 72 h
# [19] = tested on: KHYG-1 (IL-2 2.5 ng/mL); experiment: as above; conditions: 72 h
# [20] = tested on: NK-92 (IL-2 2.5 ng/mL); experiment: as above; conditions: 72 h
# [21] = tested on: NK-YS (IL-2 2.5 ng/mL); experiment: as above; conditions: 72 h
# [22] = tested on: NKL (IL-2 2.5 ng/mL); experiment: as above; conditions: 72 h
# [23] = tested on: SNK-6 (IL-2 2.5 ng/mL); experiment: as above; conditions: 72 h
# [24] = tested on: YT (IL-2 2.5 ng/mL); experiment: as above; conditions: 72 h
# [25] = tested on: normal primary NK cells, pool 1 (3 donors) (IL-2 2.5 ng/mL); experiment: as above; conditions: 72 h
# [26] = tested on: normal primary NK cells, pool 1 (3 donors), resting (IL-2 0 ng/mL); experiment: as above; conditions: 72 h
# [27] = tested on: normal primary NK cells, pool 2 (3 donors) (IL-2 2.5 ng/mL); experiment: as above; conditions: 72 h
# [28] = tested on: normal primary NK cells, pool 3 (3 donors) (IL-2 2.5 ng/mL); experiment: as above; conditions: 72 h
smiles,measurement,setting,value
CNC(=O)CN1CCC(Oc2cc3c(Nc4cccc(Cl)c4F)ncnc3cc2OC)CC1 [Sapitinib] (max concentration tested 1000 nM),percent inhibition of viability,[1]; 0.1 nM,3.94%
same,percent inhibition of viability,[1]; 1 nM,0.06%
same,percent inhibition of viability,[1]; 10 nM,-2.58%
same,percent inhibition of viability,[1]; 100 nM,3.86%
same,percent inhibition of viability,[1]; 1000 nM,22.1%
same,percent inhibition of viability,[2]; 0.1 nM,3.06%
same,percent inhibition of viability,[2]; 1 nM,0.6%
same,percent inhibition of viability,[2]; 10 nM,-4.76%
same,percent inhibition of viability,[2]; 100 nM,-5%
same,percent inhibition of viability,[2]; 1000 nM,-2.82%
same,percent inhibition of viability,[3]; 0.1 nM,0.18%
same,percent inhibition of viability,[3]; 1 nM,0.99%
same,percent inhibition of viability,[3]; 10 nM,5.5%
same,percent inhibition of viability,[3]; 100 nM,4.61%
same,percent inhibition of viability,[3]; 1000 nM,15.1%
same,percent inhibition of viability,[4]; 0.1 nM,-6.57%
same,percent inhibition of viability,[4]; 1 nM,-1.42%
same,percent inhibition of viability,[4]; 10 nM,0.58%
same,percent inhibition of viability,[4]; 100 nM,-5.73%
same,percent inhibition of viability,[4]; 1000 nM,11.3%
same,percent inhibition of viability,[5]; 0.1 nM,0.69%
same,percent inhibition of viability,[5]; 1 nM,2.55%
same,percent inhibition of viability,[5]; 10 nM,10.2%
same,percent inhibition of viability,[5]; 100 nM,2.53%
same,percent inhibition of viability,[5]; 1000 nM,4.41%
same,percent inhibition of viability,[6]; 0.1 nM,-3.59%
same,percent inhibition of viability,[6]; 1 nM,-7.59%
same,percent inhibition of viability,[6]; 10 nM,7.58%
same,percent inhibition of viability,[6]; 100 nM,-10.8%
same,percent inhibition of viability,[6]; 1000 nM,6.39%
same,percent inhibition of viability,[7]; 0.1 nM,0.21%
same,percent inhibition of viability,[7]; 1 nM,0.23%
same,percent inhibition of viability,[7]; 10 nM,5.94%
same,percent inhibition of viability,[7]; 100 nM,0.04%
same,percent inhibition of viability,[7]; 1000 nM,5.37%
same,percent inhibition of viability,[8]; 0.1 nM,-6.69%
same,percent inhibition of viability,[8]; 1 nM,-1.96%
same,percent inhibition of viability,[8]; 10 nM,-5.01%
same,percent inhibition of viability,[8]; 100 nM,0.25%
same,percent inhibition of viability,[8]; 1000 nM,5.26%
same,percent inhibition of viability,[9]; 0.1 nM,3.05%
same,percent inhibition of viability,[9]; 1 nM,16.8%
same,percent inhibition of viability,[9]; 10 nM,21.3%
same,percent inhibition of viability,[9]; 100 nM,25.7%
same,percent inhibition of viability,[9]; 1000 nM,25.6%
same,percent inhibition of viability,[10]; 0.1 nM,1.69%
same,percent inhibition of viability,[10]; 1 nM,2.8%
same,percent inhibition of viability,[10]; 10 nM,8.28%
same,percent inhibition of viability,[10]; 100 nM,2.39%
same,percent inhibition of viability,[10]; 1000 nM,14.2%
same,percent inhibition of viability,[11]; 0.1 nM,3.61%
same,percent inhibition of viability,[11]; 1 nM,-8.96%
same,percent inhibition of viability,[11]; 10 nM,0.62%
same,percent inhibition of viability,[11]; 100 nM,-8.22%
same,percent inhibition of viability,[11]; 1000 nM,4.72%
same,percent inhibition of viability,[12]; 0.1 nM,6.72%
same,percent inhibition of viability,[12]; 1 nM,-12.5%
same,percent inhibition of viability,[12]; 10 nM,3.2%
same,percent inhibition of viability,[12]; 100 nM,-20.9%
same,percent inhibition of viability,[12]; 1000 nM,-10.5%
same,percent inhibition of viability,[13]; 0.1 nM,-5.36%
same,percent inhibition of viability,[13]; 1 nM,0.45%
same,percent inhibition of viability,[13]; 10 nM,2.66%
same,percent inhibition of viability,[13]; 100 nM,4.26%
same,percent inhibition of viability,[13]; 1000 nM,5.15%
same,percent inhibition of viability,[14]; 0.1 nM,-11.4%
same,percent inhibition of viability,[14]; 1 nM,-8.98%
same,percent inhibition of viability,[14]; 10 nM,0.1%
same,percent inhibition of viability,[14]; 100 nM,-3.48%
same,percent inhibition of viability,[14]; 1000 nM,6.33%
same,drug sensitivity score,[15],1.29
same,drug sensitivity score,[16],0
same,drug sensitivity score,[17],0.17
same,drug sensitivity score,[18],0
same,drug sensitivity score,[19],0
same,drug sensitivity score,[20],0
same,drug sensitivity score,[21],0
same,drug sensitivity score,[22],0
same,drug sensitivity score,[23],8.21
same,drug sensitivity score,[24],0.02
same,drug sensitivity score,[25],0
same,drug sensitivity score,[26],0
same,drug sensitivity score,[27],0
same,drug sensitivity score,[28],0
Cc1cc(C)c(/C=C2\C(=O)Nc3ccccc32)[nH]1 [Semaxanib] (max concentration tested 10000 nM),percent inhibition of viability,[1]; 1 nM,-3.94%
same,percent inhibition of viability,[1]; 10 nM,-4.89%
same,percent inhibition of viability,[1]; 100 nM,-0.87%
same,percent inhibition of viability,[1]; 1000 nM,-2.28%
same,percent inhibition of viability,[1]; 10000 nM,-6.44%
same,percent inhibition of viability,[2]; 1 nM,-12.8%
same,percent inhibition of viability,[2]; 10 nM,-10.6%
same,percent inhibition of viability,[2]; 100 nM,-9.72%
same,percent inhibition of viability,[2]; 1000 nM,-14.2%
same,percent inhibition of viability,[2]; 10000 nM,-12.3%
same,percent inhibition of viability,[3]; 1 nM,-3.23%
same,percent inhibition of viability,[3]; 10 nM,1.84%
same,percent inhibition of viability,[3]; 100 nM,-5.66%
same,percent inhibition of viability,[3]; 1000 nM,-0.69%
same,percent inhibition of viability,[3]; 10000 nM,-8.53%
same,percent inhibition of viability,[4]; 1 nM,-2.48%
same,percent inhibition of viability,[4]; 10 nM,-0.88%
same,percent inhibition of viability,[4]; 100 nM,2.8%
same,percent inhibition of viability,[4]; 1000 nM,17.6%
same,percent inhibition of viability,[4]; 10000 nM,4.62%
same,percent inhibition of viability,[5]; 1 nM,-1.36%
same,percent inhibition of viability,[5]; 10 nM,0.11%
same,percent inhibition of viability,[5]; 100 nM,0.12%
same,percent inhibition of viability,[5]; 1000 nM,6.34%
same,percent inhibition of viability,[5]; 10000 nM,1.2%
same,percent inhibition of viability,[6]; 1 nM,-9.95%
same,percent inhibition of viability,[6]; 10 nM,-0.12%
same,percent inhibition of viability,[6]; 100 nM,2.69%
same,percent inhibition of viability,[6]; 1000 nM,-5.85%
same,percent inhibition of viability,[6]; 10000 nM,-9.23%
same,percent inhibition of viability,[7]; 1 nM,-0.44%
same,percent inhibition of viability,[7]; 10 nM,2.71%
same,percent inhibition of viability,[7]; 100 nM,2.82%
same,percent inhibition of viability,[7]; 1000 nM,11.1%
same,percent inhibition of viability,[7]; 10000 nM,7.36%
same,percent inhibition of viability,[8]; 1 nM,-13.9%
same,percent inhibition of viability,[8]; 10 nM,-12.4%
same,percent inhibition of viability,[8]; 100 nM,-11.4%
same,percent inhibition of viability,[8]; 1000 nM,-6.8%
same,percent inhibition of viability,[8]; 10000 nM,-21.5%
same,percent inhibition of viability,[9]; 1 nM,11.5%
same,percent inhibition of viability,[9]; 10 nM,16.6%
same,percent inhibition of viability,[9]; 100 nM,-2.4%
same,percent inhibition of viability,[9]; 1000 nM,-25%
same,percent inhibition of viability,[9]; 10000 nM,-71.7%
same,percent inhibition of viability,[10]; 1 nM,1.76%
same,percent inhibition of viability,[10]; 10 nM,-2.52%
same,percent inhibition of viability,[10]; 100 nM,0.26%
same,percent inhibition of viability,[10]; 1000 nM,5.87%
same,percent inhibition of viability,[10]; 10000 nM,-1.2%
same,percent inhibition of viability,[11]; 1 nM,-10.6%
same,percent inhibition of viability,[11]; 10 nM,-9.74%
same,percent inhibition of viability,[11]; 100 nM,-0.67%
same,percent inhibition of viability,[11]; 1000 nM,-9.25%
same,percent inhibition of viability,[11]; 10000 nM,-0.4%
same,percent inhibition of viability,[12]; 1 nM,-26.7%
same,percent inhibition of viability,[12]; 10 nM,-24.9%
same,percent inhibition of viability,[12]; 100 nM,-16.6%
same,percent inhibition of viability,[12]; 1000 nM,-29.6%
same,percent inhibition of viability,[12]; 10000 nM,-4.81%
same,percent inhibition of viability,[13]; 1 nM,-8.9%
same,percent inhibition of viability,[13]; 10 nM,-5%
same,percent inhibition of viability,[13]; 100 nM,-12.5%
same,percent inhibition of viability,[13]; 1000 nM,-15.6%
same,percent inhibition of viability,[13]; 10000 nM,0.7%
same,percent inhibition of viability,[14]; 1 nM,-10.1%
same,percent inhibition of viability,[14]; 10 nM,-7.93%
same,percent inhibition of viability,[14]; 100 nM,-13.2%
same,percent inhibition of viability,[14]; 1000 nM,-15.4%
same,percent inhibition of viability,[14]; 10000 nM,-11%
same,drug sensitivity score,[15],0
same,drug sensitivity score,[16],0
same,drug sensitivity score,[17],0
same,drug sensitivity score,[18],0.08
same,drug sensitivity score,[19],0
same,drug sensitivity score,[20],0
same,drug sensitivity score,[21],0.03
same,drug sensitivity score,[22],0
same,drug sensitivity score,[23],0
same,drug sensitivity score,[24],0
same,drug sensitivity score,[25],0
same,drug sensitivity score,[26],0
same,drug sensitivity score,[27],0
same,drug sensitivity score,[28],0
